The subject of this experiment is LX-1 lung xenograft sc, nude mice, tumor weight. In words: NCI In Vivo Anticancer Drug Screen. Data for tumor model Human Lung LX-1 Xenograft (subcutaneous) in NU/NU Swiss (nude) mice. Particulars: endpoint: optimum tumor weight change, schedule: Q04DX003 (ip), higher = larger tumour. On the procedure:
The antitumor activity of compounds was measured in mice bearing transplantable tumors. Survival or tumor size were measured and the results are expressed as the measurement made in the treated group (T) divided by the measurement made in the vehicle treated control group (C). The tumor model used in this assay is Human Lung LX-1 Xenograft (subcutaneous) in NU/NU Swiss (nude) mice

Where [1] appears, read: dose: 5.0 mg/kg/injection, vehicle: Klucel (hydroxypropylcellulose) (HPC).
The mark [2] stands for this setting: dose: 10.0 mg/kg/injection, vehicle: Klucel (hydroxypropylcellulose) (HPC).
Where [3] appears, read: dose: 50.0 mg/kg/injection, vehicle: water.
Where [4] appears, read: dose: 25.0 mg/kg/injection, vehicle: Klucel (hydroxypropylcellulose) (HPC).
[5] abbreviates: dose: 100.0 mg/kg/injection, vehicle: Klucel (hydroxypropylcellulose) (HPC).
Setting [6] is: dose: 50.0 mg/kg/injection, vehicle: saline.
Where [7] appears, read: dose: 100.0 mg/kg/injection, vehicle: saline.
Setting [8] is: dose: 200.0 mg/kg/injection, vehicle: saline.
Where [9] appears, read: dose: 200.0 mg/kg/injection, vehicle: suspension in saline.
Setting [10] is: dose: 400.0 mg/kg/injection, vehicle: suspension in saline.
Where [11] appears, read: dose: 50.0 mg/kg/injection, vehicle: Klucel (hydroxypropylcellulose) (HPC).
Where [12] appears, read: dose: 200.0 mg/kg/injection, vehicle: Klucel (hydroxypropylcellulose) (HPC).
Where [13] appears, read: dose: 400.0 mg/kg/injection, vehicle: Klucel (hydroxypropylcellulose) (HPC).
The mark [14] stands for this setting: dose: 1.5 mg/kg/injection, vehicle: saline.
Setting [15] is: dose: 0.75 mg/kg/injection, vehicle: saline.
Where [16] appears, read: dose: 12.5 mg/kg/injection, vehicle: Klucel (hydroxypropylcellulose) (HPC).

Values joined by “and” are separate entries in the source; they are usually repeats but may differ in a detail not shown here. Identical values can stand only once.

Take `CC1CCC(NC(=O)N(CCCl)N=O)CC1` (centres undefined): the T/C under setting [1] is 73 % of control and the T/C under setting [2] is 32 % of control.

For the compound `Cn1cnc([N+](=O)[O-])c1[Se]c1nc(N)nc2nc[nH]c12`, the T/C (dose: 25.0 mg/kg/injection, vehicle: water) is 77 % of control; the T/C under setting [3] is 54 % of control; the T/C (dose: 100.0 mg/kg/injection, vehicle: water) is 49 % of control.

For `CCc1ccccc1N1CCN(C(=O)c2cc(OC)c(OC)c(OC)c2)CC1`, the T/C runs as follows: under setting [4], 62 % of control and 85 % of control; under setting [5], 60 % of control.

For the compound `Nc1cc2[nH]cnc2c(=O)[nH]1`, the T/C is 96 % of control under setting [6], 123 % of control under setting [7] and 112 % of control under setting [8].

In the case of `COC(OC(CO)C(O)S(=O)(=O)O)C(O)S(=O)(=O)O` (centres undefined), the T/C is 45 % of control under setting [8]; 89 % of control under setting [9]; 82 % of control under setting [10]; 41 % of control (dose: 800.0 mg/kg/injection, vehicle: suspension in saline).

Take `O=P1(NCCCl)OCCCN1CCCl` (centres undefined): the T/C (dose: 6.25 mg/kg/injection, vehicle: saline) was 26 % of control; the T/C (dose: 25.0 mg/kg/injection, vehicle: saline) was 54 % of control; the T/C under setting [6] was 39 % of control.

Consider `CCN(CC)CCCC(C)Nc1c2ccc(Cl)cc2nc2ccc(OC)cc12` (centres undefined), for which the T/C runs as follows: (dose: 25.0 mg/kg/injection, vehicle: saline with Tween-80) 119 % of control; (dose: 50.0 mg/kg/injection, vehicle: saline with Tween-80) 99 % of control; (dose: 100.0 mg/kg/injection, vehicle: saline with Tween-80) 108 % of control.

In the case of `NC(=O)c1ccc[n+](Cc2c(Cl)cccc2Cl)c1`, the T/C runs as follows: (dose: 24.0 mg/kg/injection, vehicle: saline) 47 % of control; (dose: 48.0 mg/kg/injection, vehicle: saline) 68 % of control.

For the compound `CN(C)N=Nc1cn[nH]c1C(N)=O`, the T/C was 2 % of control under setting [11], 53 % of control under setting [12] and -43 % of control under setting [13].

As for `CC[C@](O)(C(=O)O)c1cc2n(c(=O)c1CO)Cc1cc3ccccc3nc1-2`, the T/C (dose: 1.0 mg/kg/injection, vehicle: saline) is 40 % of control; the T/C (dose: 4.0 mg/kg/injection, vehicle: saline) was 26 % of control and 40 % of control; the T/C (dose: 8.0 mg/kg/injection, vehicle: saline) is 32 % of control and 35 % of control; the T/C (dose: 16.0 mg/kg/injection, vehicle: saline) is 29 % of control.

For the compound `CCN(C)N=Nc1ccc(C(N)=O)cc1`, the T/C is 67 % of control under setting [4], 9 % of control under setting [11] and -60 % of control under setting [12].

In the case of `OC(CBr)C(O)C(O)C(O)CBr` (centres undefined), the T/C under setting [4] was 98 % of control and the T/C under setting [11] was 66 % of control.

Regarding `CO[C@@]12[C@H](COC(N)=O)C3=C(C(=O)C(C)=C(N)C3=O)N1C[C@@H]1N[C@@H]12`, the T/C under setting [14] was 98 % of control and the T/C (dose: 3.0 mg/kg/injection, vehicle: saline) is 40 % of control.

As for `CC(=O)OCC(=O)[C@@]12OC(C)(C)O[C@@H]1C[C@H]1[C@@H]3CC(C=O)=C4C=C(OCCCl)CC[C@]4(C)[C@@]3(F)[C@@H](O)C[C@@]12C`, the T/C under setting [4] was 96 % of control and the T/C under setting [11] is 106 % of control.

In the case of `O=c1[nH]cnc2n[nH]nc12`, the T/C runs as follows: under setting [12], 111 % of control; under setting [13], 59 % of control; (dose: 800.0 mg/kg/injection, vehicle: Klucel (hydroxypropylcellulose) (HPC)) 94 % of control.

Turning to `O=C1c2c(O)ccc(O)c2C(=O)c2c(NCCNCCO)ccc(NCCNCCO)c21`, the T/C (dose: 0.31 mg/kg/injection, vehicle: water) was 52 % of control.

As for `[N-]=[N+]=CC(=O)CCC(N)C(=O)O` (centres undefined), for the setting “dose: 37.5 mg/kg/injection, vehicle: saline”, the T/C is -87 % of control.

On to `COC1C(O)CC(OC2CC(OC3CC(O[C@@H]4C(=O)c5c(cc6cc(OC7CC(OC8CC(O)C(O)C(C)O8)C(O)C(C)O7)c(C)c(O)c6c5O)C[C@H]4[C@H](OC)C(=O)[C@@H](O)[C@@H](C)O)OC(C)C3O)OC(C)C2O)OC1C` (some centres undefined), for which the T/C runs as follows: under setting [15], 104 % of control; under setting [14], 53 % of control and 62 % of control.

Turning to `COC1C(C)OC(OC2CC(C)(O)Cc3cc4c(c(O)c32)C(=O)c2c(O)cc3c(c2C4=O)OC2OC3(C)C(O)C(N(C)C)C2O)C(OC)C1(C)OC` (centres undefined), the T/C runs as follows: (dose: 2.5 mg/kg/injection, vehicle: Klucel (hydroxypropylcellulose) (HPC)) 69 % of control; under setting [1], 75 % of control; under setting [2], 56 % of control; (dose: 20.0 mg/kg/injection, vehicle: Klucel (hydroxypropylcellulose) (HPC)) 38 % of control.

For `Nc1nc(N)c2cc(CNc3ccc(C(=O)NC(CC(=O)O)CC(=O)O)cc3)ccc2n1`, the T/C (dose: 6.25 mg/kg/injection, vehicle: Klucel (hydroxypropylcellulose) (HPC)) was 66 % of control; the T/C under setting [16] is 71 % of control; the T/C under setting [4] was 78 % of control.

As for `C[n+]1c(-c2cccc3ccccc23)c2cc(N)ccc2c2ccccc21`, the T/C was 61 % of control under setting [15] and 57 % of control under setting [14].

For the compound `N[C@@H](Cc1ccc(N(CCCl)CCCl)cc1)C(=O)O`, the T/C is 81 % of control and 87 % of control (dose: 4.0 mg/kg/injection, vehicle: suspension in saline); 56 % of control (dose: 8.0 mg/kg/injection, vehicle: suspension in saline).

For `CC(C)CCCCCCCCCCCCC(=O)NCC(=O)NC1C(C)OC(Nc2ncnc3nc[nH]c23)C(O)C1O` (centres undefined), where the note is “dose: 6.25 mg/kg/injection, vehicle: saline with Tween-80”, the T/C was 34 % of control.

Take `COc1cccc2c1C(=O)c1c(O)c3c(c(O)c1C2=O)C[C@@](O)(C(=O)CO)C[C@@H]3OC1CC(N)C(OC)C(C)O1` (some centres undefined): the T/C is, setting by setting: (dose: 0.4 mg/kg/injection, vehicle: saline) 84 % of control; (dose: 0.79 mg/kg/injection, vehicle: saline) 106 % of control; (dose: 1.57 mg/kg/injection, vehicle: saline) 40 % of control.

In the case of `O=S(CCCl)CCCl`, the T/C under setting [11] is 61 % of control.

Turning to `CN1N=C(N)c2cn(C3OC(COP(=O)(O)O)C(O)C3O)c3ncnc1c23` (centres undefined), the T/C under setting [3] was 86 % of control.

Take `CC(C)CCCCCCCCCCCCC(=O)NCC(=O)NC1C(O)C(O)C(Nc2ncnc3nc[nH]c23)OC1C(O)CO` (centres undefined): the T/C is, setting by setting: (dose: 3.0 mg/kg/injection, vehicle: suspension in saline) 81 % of control; (dose: 12.0 mg/kg/injection, vehicle: suspension in saline) 34 % of control.

Regarding `COc1ccc(C(N)=O)cc1N=NN(C)C`, the T/C (dose: 18.75 mg/kg/injection, vehicle: Klucel (hydroxypropylcellulose) (HPC)) was 60 % of control.

Take `CN(N=O)C(=O)N[C@@H](C=O)[C@@H](O)[C@H](O)[C@H](O)CO`: the T/C under setting [7] was 150 % of control and the T/C under setting [8] was 64 % of control.

For the compound `O=C[C@@H](CO)O[C@H](C=O)n1cnc2c(=O)[nH]cnc21`, the T/C was 92 % of control (dose: 100.0 mg/kg/injection, vehicle: suspension in saline); 73 % of control under setting [9]; 62 % of control under setting [10].

Take `O=[N+]([O-])/C=C\c1ccc2c(c1)OCO2`: the T/C is 89 % of control under setting [16]; 63 % of control and 88 % of control under setting [4]; 64 % of control and 73 % of control under setting [11]; 103 % of control under setting [5].

Values taken from PubChem BioAssay AID262 (DTP/NCI, 2004).
